# Experimental data reported in US20110212199A1, “AGENT FOR TREATING EYE DISEASES” (priority 2003, published 2011).
# “Also recorded” adds a separate entry of the source.
# How the values were obtained:
# [1] = tested on: pigmentary retinal degeneration; assay: Example 13: pigmentary retinal degeneration; format: in vivo, human; conditions: after 77 days
# Description: The patient is person, and has artificial intraocular lens inserted eyes already carried out a cataract operation. Due to pigmentary retinal degeneration, narrowing of visual field occurs. […] After 77 days from initiation of administration, it could be confirmed that both of visual acuity and visual field were improved. Also, when the visual fields were measured by OCTOPUS 1-2-3 static perimeter before administration and after 77 days from the initiation of the administration, and they were compared, it can be confirmed to be improved. (see FIGS. 27 to 30)
# cataract = assay: Example 11: cataract patient; format: in vivo, human; conditions: 1 mg/l, 1 drop (50 μl) once per day
# [2] = tested on: high intraocular pressure open-angle glaucoma; assay: Example 10: high intraocular pressure open-angle glaucoma patient; format: in vivo, human; set-up: intraocular pressure, right: dose or concentration left out as unconfirmed
# Description: The patient is person diagnosed as high intraocular pressure open-angle glaucoma. Water-soluble 17β-estradiol inclusion product (Cyclodextrin-encapsulated 17β-estradiol available from SIGMA CO. […] To the above-mentioned patient, 1 drop (25 μl) of eye drops was dropped once every morning for a week.
# chorioretinal atrophy = assay: Example 23: chorioretinal atrophy; format: in vivo, human; conditions: person, 1 mg/l
# chalazion = assay: Example 14: chalazion; format: in vivo, human; conditions: child, right eye; 1 mg/l, 1 drop (50 μl) once every morning
# [3] = tested on: epidemic keratoconjunctivitis; assay: Example 29: epidemic keratoconjunctivitis; format: in vivo, human
# chorioretinal hemorrhage = assay: Example 17: chorioretinal hemorrhage; format: in vivo, human; conditions: person, right eye; 1 mg/l, 1 drop (50 μl) once every morning, with Adona 30 mg a day orally
# macular hole = assay: Example 25: macular hole; format: in vivo, human
# iridocyclitis = assay: Example 20: iridocyclitis; format: in vivo, human; conditions: person, right eye; 1 mg/l, 1 drop (50 μl) every morning; after 1 week
# [4] = tested on: granular corneal degeneration; assay: Example 19: corneal degeneration; format: in vivo, human
# Mooren's corneal ulcer = assay: Example 18: corneal ulcer; format: in vivo, human; conditions: person, right eye; 1 mg/l, 1 drop (50 μl) twice a day
# Description: Thus, it can be considered that treatment of autoimmune disease is possible.
# diabetic retinopathy = assay: Example 24: diabetic retinopathy; format: in vivo, human
# schizophrenia = assay: Example 22: central nerve diseases (schizophrenia patient); format: in vivo, human
# asthenopia = assay: Example 30: asthenopia; format: in vivo, human; conditions: person; 10 mg/l, once (50 μl) a day; 3 weeks
# myopia = assay: Example 15: myopia; format: in vivo, human
# [5] = tested on: intraocular pressure of house rabbit; assay: Effects on intraocular pressure (animal experiment); format: in vivo, colored house rabbits
# Description: For the experiments, five (10 eyes) colored house rabbits (body weight: 1.8 to 2 kg) with 8 months to 10 months from the birth were used. […] Intraocular pressure of the house rabbit before treating with eye drops/eye washes was 14 mmHg at 1 PM. […] The maximum dropping of the intraocular pressure appeared after 50 minutes from washing. Lowering effects of intraocular pressure continued at least up to after 5 hours from washing. […] This house rabbit was immediately washed again with the same eye drops/eye washes, intraocular pressure was lowered up to 13 mmHg after 45 minutes from washing. The house rabbit subjected to eye drops/eye washes treatment was allowed to stand, and intraocular pressure was measured next day at 9 AM, it was 18 mmHg, and the effects of eye drops/eye washes at the previous day remained. […] The effects of administration can be found to be continued for a long time.
# dynamic visual acuity = assay: Example 26: dynamic visual acuity; format: in vivo, human; conditions: person, left eye; 10 μg/ml, 50 μl one time; 30 minutes to 1 hour and 15 minutes after dropping
# presbyopia = assay: Example 16: presbyopia, corrected near visual acuity; format: in vivo, human; conditions: after 14 days; before 0.4
# Description: To […] with presbyopia having corrected near visual acuity (near vision after correction) before treatment of […]
# [6] = tested on: central chorioretinopathy (choriotetinitis); assay: Example 31: central chorioretinopathy; format: in vivo, human
# [7] = tested on: cataract in ultraviolet ray irradiated eyes of mouse; assay: Treatment of cataract (animal experiment), UV-A+UV-B irradiation; format: in vivo
# Description: Control group (Control): To eyes of mouse (4 eyes) were irradiated ultraviolet rays UV-A+UV-B (each 0.36J: 100 μW×1 hour) from 10 PM to 11 PM at the first day, the third day, the fifth day each once, and three times in total. Provided that, before 1 minute and after 1 minute of each ultraviolet ray irradiation, 1 drop (50 μl) of PBS (phosphate buffered physiological saline) was administered, and 1 drop of PBS was administered each once at the second day, the fourth day, the sixth day, the seventh day, the eighth day, the ninth day and the tenth day.
# Pre-administered group of ultraviolet ray irradiation (Pre 0.1 g/l and Pre 0.01 g/l): To eyes of mouse were irradiated ultraviolet rays UV-A+UV-B (each 0.36J: 100 pW×1 hour) from 10 PM to 11 PM at the first day, the third day, the fifth day each once, and three times in total.
# Post-administered group of ultraviolet ray irradiation (Post 0.1 g/l and Post 0.01 g/l): To eyes of mouse were irradiated ultraviolet rays UV-A+UV-B (each 0.36J: 100 μW×1 hour) from 10 PM to 11 PM at the first day, the third day and the fifth day each once, and three times in total.
smiles,measurement,setting,value
C[C@]12CC[C@@H]3c4ccc(O)cc4CC[C@H]3[C@@H]1CC[C@@H]2O [17β-estradiol],visual fields by OCTOPUS 1-2-3 static perimeter,[1],improved
same,Vs vision after correction,[1]; before 0.8,1.0
same,visual acuity Vs,[1]; before 0.8,0.5
same,"opacity of cataract, slit lamp microscope",cataract,opacity of cataract had been reduced
same,visual acuity,cataract,improvement in visual acuity was admitted
same,"intraocular pressure, left","[2]; after a week, before 24",18 mmHg
same,"visual field, left eye","[2]; after a week, progressed defect before",slightly improved
same,"visual field, right eye","[2]; after a week, slight defect before",substantially normally recovered
same,"intraocular pressure, left",[2]; at 3 weeks,19 mmHg
same,"intraocular pressure, right",[2]; at 3 weeks,20 mmHg
same,"intraocular pressure, right","[2]; person, inclusion product […], 1 drop (25 μl) every morning, after a week, before 23",16 mmHg
same,"vision after correction, left eye","chorioretinal atrophy; 1 drop (50 μl) once a day for 1 month, before 0.1",0.3
same,"vision after correction, right eye","chorioretinal atrophy; 50 μl once a day for 1 month, before 0.08 (n·c)",0.2
same,time until tumor disappeared,chalazion,12 days
same,eye discharge,"[3]; 1 mg/l once a day, fourth day",eye discharge was increased
same,keratitis superficialis diffusa,"[3]; person, 1 mg/l, 1 drop (50 μl) once a day",cured at the fourth day
same,time until hemorrhage disappeared,chorioretinal hemorrhage,45 days
same,"visual acuity, left eye","macular hole; after 1 month, before 0.7",1.2
same,macular hole outcome,"macular hole; person, left eye, 10 mg/l, 1 drop (50 μl) twice a day for 1 month",macular hole was cured
same,iridocyclitis outcome,iridocyclitis,inflammatory cells in anterior chamber disappeared
same,Vs vision after correction,"[4]; (1) 2 weeks, before n·c",0.8
same,visual acuity Vs,"[4]; (1) person, left eye, 1 mg/l, 1 drop twice a day, 2 weeks, before 0.6 (n·c)",0.4
same,time in which the disease was cured,Mooren's corneal ulcer,3 weeks
same,retinal bleeding,diabetic retinopathy; after about 100 days,retinal bleeding was disappeared
same,"retinal bleeding, photograph of eyegrounds","diabetic retinopathy; person, 1 mg/l, 1 drop (50 μl) once everyday, after about 2 months",slightly improved
same,visual acuity Vs,"schizophrenia; after 14 days, initiation 0.09",Vs = 0.1 × IOL (0.1)
same,Vs vision after correction,"schizophrenia; after 14 days, initiation 0.1",Vs = 0.1 × IOL (0.1)
same,Vs vision after correction,schizophrenia; after 42 days,0.1
same,visual acuity Vs,schizophrenia; after 42 days,0.09
same,Vs vision after correction,schizophrenia; after 77 days,0.15
same,visual acuity Vs,schizophrenia; after 77 days,0.1
same,Vs vision after correction,schizophrenia; after 115 days,0.2
same,visual acuity Vs,schizophrenia; after 115 days,0.09
same,mental state,"schizophrenia; patient's statement after 42 days, overall",improvement in mental state; also recorded: be encouraged
same,asthenopia,asthenopia,asthenopia was lightened
same,visual acuity Vs,"myopia; (1) after 9 days, before 0.6",1.0
same,visual acuity Vs,"myopia; (2) after 45 days, before 0.3",0.5
same,intraocular pressure,"[5]; 25 μl (1 drop) of 100 mg/l at 1 PM, after 3.5 hours, before 14 mmHg",10 mmHg
same,time the intraocular pressure effect continued,[5]; after 25 μl drop at 1 PM,≥ 5 h
same,time the lowering effect of intraocular pressure continued,[5]; after washing,≥ 5 h
same,time of maximum dropping of intraocular pressure,[5]; after washing with 100 mg/l eye washes at 1 PM,50 min
same,intraocular pressure,"[5]; high-pressure eye, 45 minutes after second washing",13 mmHg
same,intraocular pressure,"[5]; high-pressure eye, next day 9 AM, before further administration",18 mmHg
same,intraocular pressure,"[5]; high-pressure eye, second day, 1 hour 50 minutes after third 25 μl drop",12 mmHg
same,intraocular pressure,"[5]; high-pressure eye, second day, 3 hours 15 minutes after 25 μl drop",13 mmHg
same,intraocular pressure,"[5]; high-pressure eye, second day, 3 hours 15 minutes after second 25 μl drop",13 mmHg
same,intraocular pressure,"[5]; high-pressure eye, third day 3:15 PM",12 mmHg
same,intraocular pressure,"[5]; high-pressure eye, third day 6 PM",11 mmHg
same,intraocular pressure,"[5]; high-pressure eye, third day 9 AM before administration",10 mmHg
same,intraocular pressure,"[5]; high-pressure eye, third day noon, 3 hours after 25 μl drop",9 mmHg
same,intraocular pressure,"[5]; rabbit with one high-pressure eye, 24 mmHg before, 15 minutes after washing at 5 PM",15 mmHg
same,dynamic visual acuity (KV-100),dynamic visual acuity,abruptly improved
same,near vision after correction Vs (30 cm),presbyopia,0.7
same,visual acuity Vs,"[6]; after treatment, before 0.1",0.3
same,Vs corrected vision,"[6]; after treatment, before 0.8",1.5
same,macular edema,"[6]; person, left eye, 10 mg/l, 1 drop (50 μl) twice a day, a week",macular edema was lightened
same,"appearance of cataract, pre-administered vs post-administered group",[7]; administered 1 minute before vs after irradiation,less appearance of cataract
same,occurrence of cataract at the tenth day,"[7]; eye drops 0.1 g/l or 0.01 g/l, 1 drop (50 μl), pre- and post-administered groups, vs PBS control",occurrence of cataract had scarcely observed
